Test results as given in ChEMBL document CHEMBL1132301, “Carbonic anhydrase inhibitors. Synthesis of water-soluble, topically effective, intraocular pressure-lowering aromatic/heterocyclic sulfonamides containing cationic or anionic moieties: is the tail more important than the ring?” (J Med Chem, 1999).

Tests used:
[1] = Compound was tested for solubility in pH buffer, at 25 degree C.(As hydrochloride salts); type: ADME
[2] = Compound was tested for solubility in pH buffer, at 25 degree C.(As sodium hydroxylate salts); type: ADME
Carbonic anhydrase 4 = target: T1, Carbonic anhydrase 4 (Bos taurus, UniProt Q95323)
T1 sequence (Q95323 whole entry): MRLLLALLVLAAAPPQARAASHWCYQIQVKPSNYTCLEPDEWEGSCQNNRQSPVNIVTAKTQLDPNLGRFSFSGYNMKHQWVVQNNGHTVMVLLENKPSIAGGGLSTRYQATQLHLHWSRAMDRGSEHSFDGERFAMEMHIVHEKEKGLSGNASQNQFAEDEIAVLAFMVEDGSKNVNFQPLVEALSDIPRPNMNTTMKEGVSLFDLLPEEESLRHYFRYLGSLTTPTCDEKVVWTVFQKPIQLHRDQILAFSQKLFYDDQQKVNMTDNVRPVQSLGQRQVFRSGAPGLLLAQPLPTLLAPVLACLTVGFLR
Description: Inhibitory activity against bovine lung microsomes carbonic anhydrase isozyme IV (bCA IV).

Carbonic anhydrase 2 = Carbonic anhydrase 2 (Homo sapiens, UniProt P00918)
Description: Inhibitory activity against human recombinant carbonic anhydrase II

Carbonic anhydrase 1 = Carbonic anhydrase 1 (Homo sapiens, UniProt P00915)
Chain of Carbonic anhydrase 1 (P00915 whole entry): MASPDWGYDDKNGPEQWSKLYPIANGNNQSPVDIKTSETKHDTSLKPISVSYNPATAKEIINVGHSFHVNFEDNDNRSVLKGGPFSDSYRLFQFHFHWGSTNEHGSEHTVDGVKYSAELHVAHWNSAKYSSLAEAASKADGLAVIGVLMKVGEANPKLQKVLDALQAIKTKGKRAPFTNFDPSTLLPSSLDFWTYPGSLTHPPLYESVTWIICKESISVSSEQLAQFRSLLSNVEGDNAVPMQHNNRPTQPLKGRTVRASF
Description: Inhibitory activity against human cloned carbonic anhydrase isozyme I (hCA I, cytosolic form).

[3] = octanol/water
Description: Partition coefficient (logD) (chloroform/buffer)

Oryctolagus cuniculus [4] = species: Oryctolagus cuniculus
Description: Compound was tested in vitro for corneal permeability of compound across the Denuded epithelial cornea obtained from rabbit

Oryctolagus cuniculus [5] = species: Oryctolagus cuniculus; remark: listed apart in the source
Description: Compound was tested in vitro for corneal permeability of compound across the intact cornea obtained from rabbit

Oryctolagus cuniculus [6] = test: In vivo fall of IOP of normotensive rabbits after treatment with 1 drop(50 microL) of […]% solution of CA inhibitor with pH value 8.5 into the eye at 60 min; type: functional
Oryctolagus cuniculus [7] = species: Oryctolagus cuniculus; type: functional, Eye
Description: In vivo fall of IOP of normotensive rabbits after treatment with 1 drop(50 microL) of 2% solution of CA inhibitor with pH value 5.9 into the eye at 0 min

Oryctolagus cuniculus [8] = species: Oryctolagus cuniculus; type: functional, Eye; remark: listed apart in the source
Description: In vivo fall of IOP of normotensive rabbits after treatment with 1 drop(50 microL) of 2% solution of CA inhibitor with pH value 5.9 into the eye at 30 min

Oryctolagus cuniculus [9] = species: Oryctolagus cuniculus; type: functional, Eye; remark: listed apart in the source
Description: In vivo fall of IOP of normotensive rabbits after treatment with 1 drop(50 microL) of 2% solution of CA inhibitor with pH value 5.9 into the eye at 60 min

Oryctolagus cuniculus [10] = species: Oryctolagus cuniculus; type: functional, Eye; remark: listed apart in the source
Description: In vivo fall of IOP of normotensive rabbits after treatment with 1 drop(50 microL) of 2% solution of CA inhibitor with pH value 5.9 into the eye at 90 min.

Oryctolagus cuniculus [11] = species: Oryctolagus cuniculus; type: functional, Eye; remark: listed apart in the source
Description: In vivo fall of IOP of Glaucomatous rabbits after treatment with 1 drop(50 microL) of 2% solution of CA inhibitor with pH value 5.5 into the eye at 0 min

Oryctolagus cuniculus [12] = species: Oryctolagus cuniculus; type: functional, Eye; remark: listed apart in the source
Description: In vivo fall of IOP of Glaucomatous rabbits after treatment with 1 drop(50 microL) of 2% solution of CA inhibitor with pH value 5.5 into the eye at 30 min

Oryctolagus cuniculus [13] = species: Oryctolagus cuniculus; type: functional, Eye; remark: listed apart in the source
Description: In vivo fall of IOP of Glaucomatous rabbits after treatment with 1 drop(50 microL) of 2% solution of CA inhibitor with pH value 5.5 into the eye at 60 min

Oryctolagus cuniculus [14] = species: Oryctolagus cuniculus; type: functional, Eye; remark: listed apart in the source
Description: In vivo fall of IOP of Glaucomatous rabbits after treatment with 1 drop(50 microL) of 2% solution of CA inhibitor with pH value 5.5 into the eye at 90 min.

Oryctolagus cuniculus [15] = species: Oryctolagus cuniculus; type: functional, Eye; remark: listed apart in the source
Description: In vivo fall of IOP of normotensive rabbits after treatment with 1 drop(50 microL) of 2% solution of CA inhibitor with pH value 5.5 into the eye at 60 min

Oryctolagus cuniculus [16] = species: Oryctolagus cuniculus; type: functional, Eye; remark: listed apart in the source
Description: In vivo fall of IOP of normotensive rabbits after treatment with 1 drop(50 microL) of 2% solution of CA inhibitor with pH value 5.5 into the eye at 90 min.

Oryctolagus cuniculus [17] = species: Oryctolagus cuniculus; type: functional, Eye; remark: listed apart in the source
Description: In vivo fall of IOP of normotensive rabbits after treatment with 1 drop(50 microL) of 2% solution of CA inhibitor with pH value 5.5 into the eye at 30 min

SMILES: CCN(C(=O)c1cccc(C(=O)O)n1)C1CC(C)S(=O)(=O)c2sc(S(N)(=O)=O)cc21 (stereo not given)
- solubility [1]: 58 mM
- solubility [2]: 64 mM
- Ki (Carbonic anhydrase 4): 17 nM
- Ki (Carbonic anhydrase 2): 5 nM
- Ki (Carbonic anhydrase 1): 400 nM
- logD [3]: 1.736
- Kin (Oryctolagus cuniculus [4]): 5900 h⁻¹
- Kin (Oryctolagus cuniculus [5]): 2800 h⁻¹

SMILES: NS(=O)(=O)c1ccc(NC(=O)c2cccc(C(=O)[O-])n2)c(F)c1.[Na+]
- pDelta IOP (Oryctolagus cuniculus [6]): 4.8 mmHg

SMILES: NS(=O)(=O)c1nc2ccc(N3C(=O)c4cccnc4C3=O)cc2s1.O=S(=O)(O)C(F)(F)F
- Delta IOP (Oryctolagus cuniculus [7]): 0 mmHg
- Delta IOP (Oryctolagus cuniculus [8]): 2 mmHg
- Delta IOP (Oryctolagus cuniculus [9]): 4.4 mmHg
- Delta IOP (Oryctolagus cuniculus [10]): 4 mmHg

SMILES: CCN(C(=O)c1cccc(C(=O)O)n1)C1CC(C)S(=O)(=O)c2sc(S(N)(=O)=O)cc21.Cl (stereo not given)
- Delta IOP (Oryctolagus cuniculus [11]): 0 mmHg
- Delta IOP (Oryctolagus cuniculus [12]): 6.5 mmHg
- Delta IOP (Oryctolagus cuniculus [13]): 9.9 mmHg
- Delta IOP (Oryctolagus cuniculus [14]): 12.1 mmHg
- Delta IOP (Oryctolagus cuniculus [15]): 6.8 mmHg
- Delta IOP (Oryctolagus cuniculus [16]): 9.1 mmHg
- Delta IOP (Oryctolagus cuniculus [17]): 3.5 mmHg
